Experimental findings from patent publication US7582773B2, “Substituted phenyl indoles” (Wyeth, priority 2003, dated 2009) are described below.

For orientation: melting point means the temperature, or range, at which the solid turns liquid. As a reminder, the IC50 is the concentration needed to halve the response being measured. A low value points to inhibition by little substance. What is called inhibition is how much of the control response was suppressed.

The target in one series is human PAI-1 (Homo sapiens, UniProt P05121). The experiment in a line: Assay for determining the IC50 of inhibition of PAI-1 (active PAI-1 bound to tPA-coated plate). Format: biochemical. The following applies: test compound 1-50 μM, pH 7.5. On the procedure:
Assay for determining the IC50 of inhibition of PAI-1. This assay is based upon the non-SDS dissociable interaction between tPA and active PAI-1. Assay plates are initially coated with human tPA (10 μg/ml). Test compounds are dissolved in DMSO at 10 mM, then diluted with physiologic buffer (pH 7.5) to a final concentration of 1-50 μM. The test compounds are incubated with human PAI-1 (50 ng/ml) for 15 minutes at room temperature. The tPA-coated plate is washed with a solution of 0.05% Tween 20 and 0.1% BSA, then the plate is blocked with a solution of 3% BSA. An aliquot of the test compound/PAI-1 solution is then added to the tPA-coated plate, incubated at room temperature for 1 hour, and washed. Active PAI-1 bound to the plate is assessed by adding an aliquot of a 1:1000 dilution of the 33B8 monoclonal antibody against human PAI-1, and incubating the plate at room temperature for 1 hour (Molecular Innovations, Royal Oak, Mich.). The plate is again washed, and a solution of goat anti-mouse IgG-alkaline phosphatase conjugate is added at a 1:50,000 dilution in goat serum. The plate is incubated 30 minutes at room temperature, washed, and a solution of alkaline phosphatase substrate is added. The plate is incubated 45 minutes at room temperature, and color development is determined at OD405 nm. The quantitation of active PAI-1 bound to tPA at varying concentrations of the test compound is used to determine the IC50. Results are analyzed using a logarithmic best-fit equation. The assay sensitivity is 5 ng/ml of human PAI-1 as determined from a standard curve ranging from 0-100 ng/ml.

In series [1] the target is T1, recombinant human plasminogen activator inhibitor-1 (PAI-1) (Homo sapiens, UniProt P05121).
T1 construct: purchased Molecular Innovations, Royal Oak, Mich
Nature of the series: Screening for PAI-1 inhibition (chromogenic tPA activity assay). In kind it is biochemical. As to the method: Screening for PAI-1 inhibition. Test compounds are dissolved in DMSO at a final concentration of 10 mM, then diluted 100× in physiologic buffer. The inhibitory assay is initiated by the addition of the test compound (1-100 μM final concentration, maximum DMSO concentration of 0.2%) in a pH 6.6 buffer containing 140 nM recombinant human plasminogen activator inhibitor-1 (PAI-1; Molecular Innovations, Royal Oak, Mich.). Following a 1 hour incubation at room temperature, 70 nM of recombinant human tissue plasminogen activator (tPA) is added, and the combination of the test compound, PAI-1 and tPA is incubated for an additional 30 minutes. Following the second incubation, Spectrozyme-tPA (American Diagnostica, Greenwich, Conn.), a chromogenic substrate for tPA, is added and absorbance read at 405 nm at 0 and 60 minutes. Relative PAI-1 inhibition is equal to the residual tPA activity in the presence of the test compounds and PAI-1. Control treatments include the complete inhibition of tPA by PAI-1 at the molar ratio employed (2:1), and the absence of any effect of the test compound on tPA alone.

T1 sequence (P05121 24-402): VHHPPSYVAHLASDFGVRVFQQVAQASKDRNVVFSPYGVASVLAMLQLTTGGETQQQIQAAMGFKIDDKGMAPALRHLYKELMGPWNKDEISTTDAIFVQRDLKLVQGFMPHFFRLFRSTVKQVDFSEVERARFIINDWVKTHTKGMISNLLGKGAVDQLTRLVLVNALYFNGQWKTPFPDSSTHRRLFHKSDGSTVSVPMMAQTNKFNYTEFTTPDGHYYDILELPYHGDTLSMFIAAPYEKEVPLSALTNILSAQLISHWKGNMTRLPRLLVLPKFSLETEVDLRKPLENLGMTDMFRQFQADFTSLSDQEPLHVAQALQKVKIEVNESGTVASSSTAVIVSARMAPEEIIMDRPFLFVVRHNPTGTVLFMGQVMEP
Chain of human PAI-1 (P05121 24-402): as above

Compound `Cc1c(Cc2ccccc2)c2cc(-c3ccc(OCc4nnn[nH]4)cc3)ccc2n1Cc1ccccc1` [1,3-Dibenzyl-2-methyl-5-[4-(1H-tetrazol-5-ylmethoxy)-phenyl]-1H-indole] came in with a melting point of 190 to 192 °C. This compound also yielded an IC50 against human PAI-1 of 47.7 µM.

With `c1ccc(Cc2c(-c3ccccc3)n(Cc3ccccc3)c3ccc(-c4ccc(OCc5nnn[nH]5)cc4)cc23)cc1` [1,3-Dibenzyl-2-phenyl-5-[4-(1H-tetrazol-5-ylmethoxy)-phenyl]-1H-indole], the inhibition at 25 µM in series [1] was determined as 51%.

At human PAI-1, `Cc1c(-c2ccccc2)n(C)c2cccc(-c3ccc(OCc4nnn[nH]4)cc3)c12` [1,3-Dimethyl-2-phenyl-4-[4-(1H-tetrazol-5-ylmethoxy)-phenyl]-1H-indole] displayed a 50% inhibitory concentration (IC50) of 32.8 µM.

`Cc1c(-c2ccccc2)n(C)c2ccc(-c3ccc(OCc4nnn[nH]4)cc3)cc12` [1,3-Dimethyl-2-phenyl-5-[4-(1H-tetrazol-5-ylmethoxy)-phenyl]-1H-indole] showed an IC50 against human PAI-1 of 16.5 µM.

In turn, `Cc1c(C)n(Cc2ccccc2)c2ccc(-c3ccc(OCc4nnn[nH]4)cc3)cc12` [1-Benzyl-2,3-dimethyl-5-[4-(1H-tetrazol-5-ylmethoxy)-phenyl]-1H-indole] returned an IC50 against human PAI-1 of 28.2 µM.

Compound `Cc1c(-c2ccccc2)n(Cc2ccccc2)c2cccc(-c3ccc(OCc4nnn[nH]4)cc3)c12` [1-Benzyl-3-methyl-2-phenyl-4-[4-(1H-tetrazol-5-ylmethoxy)-phenyl]-1H-indole] gave a melting point of 174 to 177 °C. The midpoint of inhibition against human PAI-1, the IC50, lay at 25.7 µM.

`Cc1c(-c2ccccc2)n(Cc2ccccc2)c2ccc(-c3ccc(OCc4nnn[nH]4)cc3)cc12` [1-Benzyl-3-methyl-2-phenyl-5-[4-(1H-tetrazol-5-ylmethoxy)-phenyl]-1H-indole] registered a half-maximal inhibitory concentration (IC50) on human PAI-1 of 10.1 µM. That is a double-digit micromolar value.

In turn, `Cc1c(-c2ccccc2)n(Cc2ccccc2)c2cc(-c3ccc(OCc4nnn[nH]4)cc3)ccc12` [1-Benzyl-3-methyl-2-phenyl-6-[4-(1H-tetrazol-5-ylmethoxy)-phenyl]-1H-indole] displayed an IC50 on human PAI-1 of 36.9 µM.

Consider `CCCCCc1c(-c2ccccc2)n(Cc2ccccc2)c2ccc(-c3ccc(OCc4nnn[nH]4)cc3)cc12` [1-Benzyl-3-pentyl-2-phenyl-5-[4-(1H-tetrazol-5-ylmethoxy)-phenyl]-1H-indole], for which the melting point lay within 165 to 168 °C. This compound also yielded an IC50 against human PAI-1 of 16.3 µM.

Compound `CCCCCc1c(-c2ccccc2)n(C)c2ccc(-c3ccc(OCc4nnn[nH]4)cc3)cc12` [1-Methyl-3-pentyl-2-phenyl-5-[4-(1H-tetrazol-5-ylmethoxy)-phenyl]-1H-indole] displayed a concentration for half-maximal inhibition (IC50) at human PAI-1 of 36.4 µM.

Consider `Cc1c(Cc2ccccc2)c2cc(-c3ccc(OCc4nnn[nH]4)cc3)ccc2n1C` [3-Benzyl-1,2-dimethyl-5-[4-(1H-tetrazol-5-ylmethoxy)-phenyl]-1H-indole], for which the IC50 against human PAI-1 is 43.9 µM.

Regarding `Cn1c(-c2ccccc2)c(Cc2ccccc2)c2cc(-c3ccc(OCc4nnn[nH]4)cc3)ccc21` [3-Benzyl-1-methyl-2-phenyl-5-[4-(1H-tetrazol-5-ylmethoxy)-phenyl]-1H-indole], the inhibition at 25 µM in series [1] stood at 56%.

The compound `c1ccc(Cn2c3c(c4cc(-c5ccc(OCc6nnn[nH]6)cc5)ccc42)CCCC3)cc1` [9-Benzyl-6-[4-(1H-tetrazol-5-ylmethoxy)-phenyl]-2,3,4,9-tetrahydro-1H-carbazole] came in with a concentration for half-maximal inhibition (IC50) on human PAI-1 of 27.5 µM.

On human PAI-1, `Cn1c2c(c3cc(-c4ccc(OCc5nnn[nH]5)cc4)ccc31)CCCC2` [9-Methyl-6-[4-(1H-tetrazol-5-ylmethoxy)-phenyl]-2,3,4,9-tetrahydro-1H-carbazole] displayed an IC50 of 6.1 µM.

With `Cc1c(Cc2ccccc2)c2cc(-c3ccc(OCC(=O)O)cc3)ccc2n1Cc1ccccc1` [[4-(1,3-Dibenzyl-2-methyl-1H-indol-5-yl)-phenoxy]-acetic acid], the melting point fell in the range of 180 to 183 °C. The IC50 against human PAI-1 was 25.3 µM.

On to `O=C(O)COc1ccc(-c2ccc3c(c2)c(Cc2ccccc2)c(-c2ccccc2)n3Cc2ccccc2)cc1` [[4-(1,3-Dibenzyl-2-phenyl-1H-indol-5-yl)-phenoxy]-acetic acid], for which the melting point fell in the range of 153 to 155 °C. This compound also yielded a concentration for half-maximal inhibition (IC50) at human PAI-1 of 12.1 µM.

The compound `Cc1c(-c2ccccc2)n(C)c2cccc(-c3ccc(OCC(=O)O)cc3)c12` [[4-(1,3-Dimethyl-2-phenyl-1H-indol-4-yl)-phenoxy]-acetic acid] returned a melting point of 177 to 180 °C. This compound also registered an IC50 against human PAI-1 of 33.9 µM.

`Cc1c(C)n(Cc2ccccc2)c2ccc(-c3ccc(OCC(=O)O)cc3)cc12` [[4-(1-Benzyl-2,3-dimethyl-1H-indol-5-yl)-phenoxy]-acetic acid] gave a melting point of 203 to 206 °C. This compound also yielded an IC50 against human PAI-1 of 51.5 µM.

On to `Cc1c(-c2ccccc2)n(Cc2ccccc2)c2cccc(-c3ccc(OCC(=O)O)cc3)c12` [[4-(1-Benzyl-3-methyl-2-phenyl-1H-indol-4-yl)-phenoxy]-acetic acid], for which the melting point lay in the range of 82 to 86 °C. This compound also returned an IC50 at human PAI-1 of 23.1 µM.

In turn, `Cc1c(-c2ccccc2)n(Cc2ccccc2)c2ccc(-c3ccc(OCC(=O)O)cc3)cc12` [[4-(1-Benzyl-3-methyl-2-phenyl-1H-indol-5-yl)-phenoxy]-acetic acid] registered a melting point of 173.5 to 175 °C. The IC50 against human PAI-1 was found to be 18.1 µM.

The compound `Cc1c(-c2ccccc2)n(Cc2ccccc2)c2cc(-c3ccc(OCC(=O)O)cc3)ccc12` [[4-(1-Benzyl-3-methyl-2-phenyl-1H-indol-6-yl)-phenoxy]-acetic acid] showed a melting point of 202 to 205 °C. Also, in series [1], the inhibition at 25 µM was 27%.

With `CCCCCc1c(-c2ccccc2)n(Cc2ccccc2)c2ccc(-c3ccc(OCC(=O)O)cc3)cc12` [[4-(1-Benzyl-3-pentyl-2-phenyl-1H-indol-5-yl)-phenoxy]-acetic acid], the melting point was 141 to 143 °C. Further, at human PAI-1, half-maximal inhibition (IC50) required 15.4 µM.

As to `CCCCCc1c(-c2ccccc2)n(C)c2ccc(-c3ccc(OCC(=O)O)cc3)cc12` [[4-(1-Methyl-3-pentyl-2-phenyl-1H-indol-5-yl)-phenoxy]-acetic acid], the melting point is 146 to 148 °C. In series [1], the inhibition at 25 µM came out at 68%.

As to `Cc1c(Cc2ccccc2)c2cc(-c3ccc(OCC(=O)O)cc3)ccc2n1C` [[4-(3-Benzyl-1,2-dimethyl-1H-indol-5-yl)-phenoxy]-acetic acid], the melting point was 204 to 207 °C. Moreover, the half-maximal inhibitory concentration (IC50) against human PAI-1 amounted to 38 µM.

Take `Cn1c(-c2ccccc2)c(Cc2ccccc2)c2cc(-c3ccc(OCC(=O)O)cc3)ccc21` [[4-(3-Benzyl-1-methyl-2-phenyl-1H-indol-5-yl)-phenoxy]-acetic acid]: the melting point lay in the range of 179 to 181 °C. In addition, the inhibition at 25 µM in series [1] came to 48%.

In turn, `O=C(O)COc1ccc(-c2ccc3c(c2)c2c(n3Cc3ccccc3)CCCC2)cc1` [[4-(9-Benzyl-6,7,8,9-tetrahydro-5H-carbazol-3-yl)-phenoxy]-acetic acid] came in with a melting point of 176 to 180 °C. This compound yielded a concentration for half-maximal inhibition (IC50) against human PAI-1 of 35.6 µM.
